Source: paper PMC11771932, “Integrated in silico and in vitro exploration of the anti-VEGFR-2 activities of a semisynthetic xanthine alkaloid inhibiting breast cancer” (PLOS ONE, 2025)
Read-outs that look alike come from different tables or passages of the source.

What was measured:
[1] = test system: MCF7 cells; test: Wound healing and migration assay; type: cell-based
Description: The wound healing assay, a simple and cost-effective procedure, can assess the mobility and repair capacity of cancerous cells. In this method, a scratch is created on a layer of cancer cells, and the initial width is recorded. The healing of the scratch was observed periodically for both untreated and treated cells. Throughout the study, images of the scratched areas from both groups were compared at the 0-hour and 48-hour time points.
Wound healing assay was accomplished for T-1-NBAB utilizing MCF7 cell lines. […]
Wound healing and migration assay
The wound healing assay allows the researcher to study cell migration and cell interactions. In […]
some cases also single cell migration can be analyzed and this assay can be imaged […]
1. Cells were seeded in 6 multi-well plates and cultured until confluent. It is important that all the cultures are confluent at the start of the experiment.
2. (yellow) pipette tip was used to make a straight scratch, simulating a wound. Often we make a scratch keeping the pipette tip under an angle of around 30 degrees to keep the scratch width limited. This allows imaging of both wound edges using the 10x objective.
The following equations are applied to calculate the healing and migration ratio Rat of migration (RM) = (wi – wf ) / t
Wi =average of intial wound width um
Wf= average of final wound width um
T = time span of the assay in hours
Percentage of wound clouser % ={ (At=0 – At=∆t ) / At=0 } 100 […]
At=∆t = wound area after n hours
Area difference % = (Ai – Af )

[2] = test system: Vero (normal epithelial) cell lines; test: Safety assay on non-cancerous Vero cells; type: cell-based; settings: Chlorocebus sabaeus, read-out: IC50 against Vero
Description: (§1) The potential of T-1-NBAB as an anticancer agent has been highlighted through both in silico and in vitro studies, primarily due to its anti-VEGFR-2 properties. To further investigate T-1-NBAB’s cytotoxicity, it was tested against breast carcinoma epithelial cancer cell lines MCF7 and T47D.
The cytotoxic potential of T-1-NBAB against non-cancerous (Vero) cell lines was accomplished by MTT procedure.
(§2) Mammalian cell lines culture
(§3) MCF7 and T47D cell lines were cultured on DMEM media. The cultured media were supplemented with 200 mM L-glutamine, 10.0% fetal bovine serum (Lonza), and 1.0% penicillin/streptomycin. Cells were seeded into 25.0 cm tissue culture flasks and incubated at 37◦C in a 5.0% CO2 incubator for 24 h or till confluency.
(§4) The safety profiles of the tested compounds were checked on one non-cancerous cell line (vero) […]
A portion of 100.0 µl of 6×10^4 cell/ml cells was seeded into each well of a 96-well plate and then the plates were incubated at 37 °C in a humidified 5.0% CO2 incubator for 24 h. At the end of incubation period, the exhausted medium was replaced with 100.0 µl of different concentrations of the designated treatment (prepared in RPMI medium starting from 1.0 mM).
(§5) The inoculated plates were incubated at the same growth conditions for another 24 h. At the end of incubation, cellular viability was assessed using MTS assay kit (Promega) according to […]

[3] = test system: MCF7 cells; test: Apoptosis assay, flow cytometry, Annexin V and PI double staining; type: cell-based
Description: The T-1-NBAB’s effect as an apoptotic agent was assessed via flow cytometry analysis, on MCF7 cells using Annexin V and PI double staining.
T-1-NBAB’s apoptotic potentials and effect on MCF7 cell cycle were accomplished by flow cytometry analysis technique.
In-vitro anticancer activity
Anticancer activities of the tested compounds against MCF7 and T47D cell lines were quantified using MTS assay kit (Promega) as described by the Manufacturer.
The selectivity index values of the tested compounds on cancer cells were calculated as described by Koch et al., with slight modifications; SI=IC50nc/IC50cc, where IC50nc: the IC50 value of the tested compound on normal cells and IC50cc: IC50 of the tested compound on cancer cell […]
In vitro EGFR kinase assay
The synthesized compound was estimated for their in vitro inhibition on human VEGFR-2 in MCF- 7 cell line; using ELISA kit. Firstly, a plate was used for the assay had been coated by an […]
2 inhibitor. Both standard and sample were added to the wells and incubated overnight at 4 ◦C, then washed. The biotinylated antibody was supplemented and further incubated for 1 h at room temperature. The unreacted, liberated antibody was then washed; followed by addition of HRP-conjugated streptavidin and incubated for 45 min at room temperature. Wells were washed and a TMB substrate solution was added and kept at room temperature for 30 min. Finally, the stop solution was added, and the intensity of the color produced was measured at 450 nm.
Concentration- inhibition response curve was established by GraphPad Prism 5.0. The IC 50 value was calculated as the concentration at which 50% of the cells could survive in comparison to […]
Flow cytometry analysis for apoptosis
Flow cytometry cell apoptosis analysis was used to investigate the apoptotic effect of the synthesized compound. […] The stained cells were measured using Epics XL-MCL™ Flow Cytometer and analyzed […]

[4] = test system: T47D cell line; test: In vitro cytotoxicity, T47D; type: cell-based
Description: as §1
(§6) The cytotoxic potential of T-1-NBAB against MCF7 and T47D cell lines was accomplished by MTT procedure.
as §2, §3, §4
(§7) A portion of 100.0 µl of 6×10^4 cell/ml cells was seeded into each well of a 96-well plate and then the plates were incubated at 37 °C in a humidified 5.0% CO2 incubator for 24 h. […]
as §5
(§8) Anticancer activities of the tested compounds against MCF7 and T47D cell lines were quantified using MTS assay kit (Promega) as described by the Manufacturer. […]

[5] = target: T1, human VEGFR-2 (Homo sapiens, UniProt P35968); test: In vitro VEGFR-2 inhibition (Human VEGFR-2 ELISA kit); type: biochemical
T1 construct: MCF- 7 cell line; endogenous in cells; host or cells: MCF-7
T1 sequence (P35968 20-1356): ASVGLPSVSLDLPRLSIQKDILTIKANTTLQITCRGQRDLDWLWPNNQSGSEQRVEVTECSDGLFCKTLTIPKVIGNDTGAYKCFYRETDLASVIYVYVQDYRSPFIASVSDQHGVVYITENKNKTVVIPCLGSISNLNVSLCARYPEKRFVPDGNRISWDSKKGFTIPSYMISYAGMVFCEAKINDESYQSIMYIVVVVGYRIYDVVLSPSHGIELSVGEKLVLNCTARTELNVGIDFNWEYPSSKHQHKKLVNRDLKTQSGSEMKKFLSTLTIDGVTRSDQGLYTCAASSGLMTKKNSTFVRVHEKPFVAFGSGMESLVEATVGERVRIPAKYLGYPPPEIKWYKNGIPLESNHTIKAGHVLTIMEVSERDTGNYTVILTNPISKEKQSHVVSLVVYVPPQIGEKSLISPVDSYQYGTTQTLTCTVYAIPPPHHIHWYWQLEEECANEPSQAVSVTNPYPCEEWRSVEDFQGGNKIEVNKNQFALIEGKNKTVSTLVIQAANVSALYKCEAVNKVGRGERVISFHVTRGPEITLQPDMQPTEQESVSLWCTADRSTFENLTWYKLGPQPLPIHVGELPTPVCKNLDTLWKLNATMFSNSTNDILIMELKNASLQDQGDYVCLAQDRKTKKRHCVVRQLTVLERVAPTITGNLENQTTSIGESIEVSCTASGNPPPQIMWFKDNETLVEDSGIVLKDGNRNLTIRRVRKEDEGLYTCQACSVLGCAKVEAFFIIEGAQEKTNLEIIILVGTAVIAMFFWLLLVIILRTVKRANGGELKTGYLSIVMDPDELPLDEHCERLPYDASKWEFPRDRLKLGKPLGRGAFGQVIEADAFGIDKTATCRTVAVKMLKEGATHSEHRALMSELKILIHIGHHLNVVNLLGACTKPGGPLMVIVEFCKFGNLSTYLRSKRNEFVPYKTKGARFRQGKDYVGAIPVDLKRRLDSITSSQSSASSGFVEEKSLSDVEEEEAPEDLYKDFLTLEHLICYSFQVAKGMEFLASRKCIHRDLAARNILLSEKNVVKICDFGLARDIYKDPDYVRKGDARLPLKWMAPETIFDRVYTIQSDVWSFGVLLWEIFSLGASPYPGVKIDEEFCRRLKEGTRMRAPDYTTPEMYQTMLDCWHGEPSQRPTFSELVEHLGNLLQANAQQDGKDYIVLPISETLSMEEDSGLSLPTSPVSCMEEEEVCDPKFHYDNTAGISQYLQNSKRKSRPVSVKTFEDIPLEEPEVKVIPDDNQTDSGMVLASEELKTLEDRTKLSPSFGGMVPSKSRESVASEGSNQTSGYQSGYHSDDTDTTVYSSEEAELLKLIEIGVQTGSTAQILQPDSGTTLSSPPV

[6] = test system: MCF7 cell line; test: In vitro cytotoxicity, MCF7; type: cell-based
Description: as §1, §6, §2, §3, §4, §7, §5, §8

[7] = test system: VEGFR-2; parameters: method as in PMID 35493991; settings: read-out: VEGFR-2 inhibition IC50; cited from earlier work
[8] = test system: Mouse; parameters: method as in earlier work; settings: structural similar compounds of the TOPKAT report; ref CPDB; cited from earlier work
[9] = test system: Rats; settings: structural similar compounds of the TOPKAT report; ref NIIRDN 6;688;82, 85ARAE 4;118;76/77, DRFUD4 2;393;77, YRTMA6 9;11;78, FMCHA2 -;C149;89, ARZNAD 30;2023;80; cited from earlier work
[10] = test system: Rat; settings: cited from earlier work
[11] = test system: Rat; settings: structural similar compounds of the TOPKAT report; ref NCI/NTP TR-358, NCI/NTP TR-138, NCI/NTP TR-336; cited from earlier work
[12] = structural similar compounds of the TOPKAT report, ref CPDB

Cn1cnc2c1c(=O)n(CC(=O)Nc1ccc(C(=O)NCc3ccccc3)cc1)c(=O)n2C [T-1-NBAB]
area difference ([1]; 0 h vs 48 h, control 659.8333): 112 µm²
RM (rate of migration) ([1]; 48 h, control 13.74681): 2.322 µm/h
Wound closure % ([1]; 48 h, control 65.96135): 12.16%
Scratch area at 0h ([1]; mean of five values): 917
Scratch area at 48 h ([1]; mean of five values): 805.5
Scratch width at 0h ([1]; mean of five values): 916.0155
Scratch width at 48 h ([1]; mean of five values): 804.5532
Reduction of scratch width after 48 hours ([1]; untreated control closed 65.9%): 12%
IC50 [2]: 68.4 µM
Apoptosis Late ([3]; control 0.12): 2.88%
Apoptosis Early ([3]; control 0.72): 3.51%
Necrosis ([3]; control 2.21): 9.37%
IC50 ([4]; Homo sapiens, breast cancer cell line T47D, read-out: IC50 against T47D): 61.2 µM
Selectivity index (SI) against T47D ([4]; IC50 normal cells (Vero) / IC50 T47D): 1.1
IC50 [5]: 0.115 µM
IC50 ([6]; Homo sapiens, breast cancer cell line MCF7, read-out: IC50 against MCF7): 16.9 µM
Selectivity index (SI) against MCF7 ([6]; IC50 normal cells (Vero) / IC50 MCF7): 4.1

Cc1nc2ccccc2n(CC(=O)Nc2ccc(C(=O)Nc3cccc(Cl)c3)cc2)c1=O [compound V]
IC50 [7]: 0.0027 µM

Cc1cccc(Nc2cc(Cl)nc(SCC(=O)NCCO)n2)c1C [4-Chloro-6-(2,3-xylidino)-2-pyrimidinylthio(N-b-hydroxyethyl) acetamide]
Carcinogenic potency TD50 mouse, Actual Endpoint (-log C) [8]: 3.915 -log C

COC(=O)Nc1nc2ccccc2n1C(=O)NCCCCCC#N [CARBAMIC ACID; [1-[(5-CYANOPENTYL)CARBAMOYL]BENZIMIDAZOL-2-YL]-; METHYL ESTER]
Rat oral LD50, Actual Endpoint (-log C) [9]: 2.12 -log C

C[C@@H]1Cc2c(Cl)cc(C(=O)N[C@@H](Cc3ccccc3)C(=O)O)c(O)c2C(=O)O1 [Ochratoxin A]
Carcinogenic potency TD50 mouse, Actual Endpoint (-log C) [8]: 4.799 -log C
Carcinogenic potency TD50 rat, Actual Endpoint (-log C) [10, 12]: 6.473 -log C

CC(C)n1c(/C=C/C(O)CC(O)CC(=O)O)c(-c2ccc(F)cc2)c2ccccc21 (stereo not drawn) [Fluvastatin, reference compound]
Carcinogenic potency TD50 rat, Actual Endpoint (-log C) [10]: 3.517 -log C

Cc1noc(NS(=O)(=O)c2ccc(N)cc2)c1C [SULFISOOXAZOLE]
Rat maximum tolerated dose gavage, Actual Endpoint (-log C) [11]: 2.825 -log C

CC(C)(Oc1ccc(CCNC(=O)c2ccc(Cl)cc2)cc1)C(=O)O [BEZAFIBRATE]
Rat oral LD50, Actual Endpoint (-log C) [9]: 1.946 -log C

CC1(C)S[C@@H]2[C@H](NC(=O)COc3ccccc3)C(=O)N2[C@H]1C(=O)O [[…]]
Rat maximum tolerated dose gavage, Actual Endpoint (-log C) [11]: 2.545 -log C

NS(=O)(=O)c1cc(C(=O)O)cc(N2CCCC2)c1Oc1ccccc1 [PIRETANIDE]
Rat oral LD50, Actual Endpoint (-log C) [9]: 1.811 -log C

O=[N+]([O-])c1ccc(-c2nc(N(CCO)CCO)c3ccccc3n2)s1 [4-Bis(2-hydroxyethyl)amino-2-(5-nitro-2-thienyl)quinazoline]
Carcinogenic potency TD50 rat, Actual Endpoint (-log C) [10, 12]: 5.06 -log C

COC(=O)Nc1nc2cc(C(=O)c3ccc(F)cc3)ccc2[nH]1 [FLUBENDAZOLE]
Rat oral LD50, Actual Endpoint (-log C) [9]: 2.088 -log C

C[C@@H]1Cc2c(Cl)cc(C(=O)N[C@@H](Cc3ccccc3)C(=O)O)c(O)c2C(=O)O1 [OCHRATOXIN]
Rat maximum tolerated dose gavage, Actual Endpoint (-log C) [11]: 6.284 -log C
